Data: patent publication US20180333461A1, “METHODS AND COMPOSITIONS FOR TREATING OR PREVENTING FLAVIVIRUS INFECTIONS” (THE UNIVERSITY OF QUEENSLAND, priority 2014, published 2018)
“Also recorded” adds a separate entry of the source.

Experiments:
[1] = system: human PBMC; assay: IL-6 secretion by human PBMC (ELISA), with or without polymyxin B pre-incubation; assay type: cell-based; conditions: 24 hours
Method: FIG. 1 is a graphical representation showing that Dengue NS1 activates human and mouse innate immune responses. (A) NS1 induces IL-6 secretion by human PBMC. Cells were treated for 24 hrs. with LPS (100 ng/mL), NS1 (40 μg/mL), or an analogous NS1 sample immune-depleted with anti-NS1 or anti-E antibody. IL-6 was measured by ELISA. Data shown is mean±SD of three donors. The inset immunoblot is of the supernatant fraction following immuno-depletion using anti-NS1 antibody or isotype-matched control antibody. […] ELAM promoter activity was monitored as in B, in response to LPS (100 ng/mL), NS1 (40 μg/mL), NS1 immuno-depleted using anti-NS1 antibody or isotype-matched control antibody (confirmed in western blot inset).
NS1 and LPS were pre-incubated for 30 minutes with or without polymyxin B, then added to PBMC and incubated for 24 hours. […] Released IL-6 was measured by ELISA. […] After 1 hour of treatment, CSF1R levels were determined by flow cytometry, and the % of cells with high levels of receptor are shown. […]
Human PBMCs from healthy donors were seeded at 1×10^6 cells per well in 12 well plates prior to incubation with NS1 or LPS. […] The level of IL-6 production was quantitated ELISA (R & D Systems) according to the protocol recommended by the manufacturer.

[2] = system: bone marrow-derived macrophages (BMM); assay: CSF-1R down-modulation assay on BMMs (flow cytometry); assay type: cell-based, mouse; conditions: 1 hour treatment
Method: NS1 and LPS were pre-incubated for 30 minutes with or without polymyxin B, then added to PBMC and incubated for 24 hours. The final concentration of polymyxin B was 25 μg/mL, with varying concentrations of LPS (0.1, 1, 10 ng/mL) and NS1 (5, 10, 20 and 40 μg/mL). Released IL-6 was measured by ELISA. […] NS1 and LPS were pre-incubated for 30 minutes with or without polymyxin B then added to BMMs that had been starved of CSF1 overnight. The final concentration of polymyxin B was 25 μg/mL, with LPS (10-fold dilutions from 100 ng/mL) and NS1 (2′-fold dilutions from 10 μg/mL). After 1 hour of treatment, CSF1R levels were determined by flow cytometry, and the % of cells with high levels of receptor are shown. Data are the mean±SD from three (A) or five (B) independent experiments.
FIG. 3 is a graphical representation showing that NS1 from several sources has immunostimulatory activity. (A) NS1 immuno-depletion prevents the down-modulation of surface CSF1R by S2 cell-expressed NS1. […] The final concentration of 5 μg/mL NS1 (as quantified by capture-ELISA) represents approximately 4-fold higher levels than produced in the CHO cell medium. […]
FIG. 5 is a graphical representation showing that NS1 activates cells via TLR4. […] CSF1R on wild-type C57BL/6 BMM (WT), tlr4^−/− and MyD88^−/−/trif^−/− BMMs was measured after 1 hour treatment with CSF1 (10^4 U/mL), LPS (100 ng/mL) and NS1 (10 μg/mL). […]

Substance: polymyxin B
- Effect on LPS-induced IL-6 in PBMC ([1]; polymyxin B 25 μg/mL pre-incubated with LPS 30 min, LPS ≤10 ng/mL): inhibited
- Effect on NS1-induced IL-6 in PBMC ([1]; polymyxin B 25 μg/mL pre-incubated with NS1 (5-40 μg/mL) 30 min): does not block; also recorded: unaffected
- Effect on LPS-induced loss of surface CSF1R on BMMs ([2]; polymyxin B 25 μg/mL pre-incubated with LPS 30 min): sensitive
- Effect on NS1-induced loss of surface CSF1R on BMMs ([2]; polymyxin B 25 μg/mL pre-incubated with NS1 30 min): does not block
